Measurements as given in patent publication US20240255531A1, “MATURE ADRENOMEDULLIN FOR THERAPY STRATIFICATION OF CORTICOSTEROIDS IN CRITICALLY ILL PATIENTS” (priority 2021, published 2024).
Like-named read-outs stand apart in the source and are kept apart here.

How the values were obtained:
[1] = system: hypothalamic-pituitary-adrenal axis suppression; settings: cited from earlier work
[2] = relative to hydrocortisone; cited from earlier work
[3] = relative to hydrocortisone; cited from earlier work; remark: listed apart in the source
[4] = Stability of human Adrenomedullin in human Citrate plasma at 24° C.; type: in vitro ADME; settings: for recovery: 10 ng ADM/ml, read-out: Average ADM recovery (N = 5); for Average loss of immune reactivity: average over time points
Method: Human ADM was diluted in human Citrate plasma (n=5, final concentration 10 ng ADM/ml) and incubated at 24° C. At selected time points, aliquots were frozen at −20° C.

[5] = system: patients at risk for sepsis / septic shock; settings: preventive administration; cited from earlier work
[6] = system: patients with septic shock; settings: hydrocortisone alone; cited from earlier work
[7] = system: adult patients with severe sepsis who were not in septic shock; experiment: HYPRESS case-control analysis, hydrocortisone vs. placebo by bio-ADM </>70 pg/mL (PP population); type: in vivo, human; settings: for patients who developed shock: PP population
Method: The HYPRESS study is a double-blind, randomized clinical trial conducted from Jan. 13, 2009, to Aug. 27, 2013, with a follow-up of 180 days until Feb. 23, 2014 (Keh et al. 2016. JAMA 316(17): 1775-1785). The trial was performed in 34 intermediate or intensive care units of university and community hospitals in Germany, and it included 380 adult patients with severe sepsis who were not in septic shock.
Patients were screened in intermediate care units or intensive care units (ICUs) of university and community hospitals for eligibility, and written informed consent was obtained from patients, patient-authorized representatives, or legal representatives. Patients were enrolled if they met all inclusion criteria: (1) provided informed consent; (2) had evidence of infection; (3) had evidence of a systemic response to infection, defined as at least 2 systemic inflammatory response syndrome criteria 12; and (4) had evidence of organ dysfunction present for not longer than 48 hours. The main exclusion criterion was septic shock. Other exclusion criteria were being younger than 18 years, having known hypersensitivity to hydrocortisone or mannitol (placebo), or having a history of glucocorticoid medication with indication for continuation of therapy or other indications for treatment with glucocorticoids. Patients were not excluded for using etomidate within 72 hours before enrolment, using a short course of glucocorticoids within 72 hours before enrolment, or using topical or inhaled glucocorticoids.
Septic shock was defined as sepsis-induced hypotension despite adequate volume status for longer than 4 hours (ie, mean arterial pressure <65 mm Hg, systolic arterial pressure <90 mm Hg, or the use of vasopressors to keep mean arterial pressure ≥65 mm Hg or systolic arterial pressure ≥90 mm Hg). […] Adequate volume status was defined as a central venous pressure of 8 mm Hg or greater (≥12 mm Hg in ventilated patients) and a central venous oxygen saturation greater than 70%. For fluid replacement, patients were to receive at least 500 to 1000 mL of crystalloids or 300 to 500 mL of colloids over 30 minutes. The use of hydroxyethyl starch preparations was discouraged owing to possible harmful effects on kidney function. Use of vasopressors was defined as therapy with dopamine at a dosage of at least 5 μg/kg/min or with any dose of epinephrine, norepinephrine, vasopressin, or other vasopressors.
The study medication (hydrocortisone and placebo) was produced and released by BAG Health Care GmbH. The medication was delivered in boxes, each containing 17 brown glass vials for 1 patient. Each vial contained 100 mg of lyophilized hydrocortisone hydrogen succinate or the same amount of lyophilized mannitol as placebo, which was indistinguishable from hydrocortisone. The medication was administered as an intravenous bolus of 50 mg, followed by a 24-hour continuous infusion of 200 mg on 5 days, 100 mg on days 6 and 7, 50 mg on days 8 and 9, and 25 mg on days 10 and 11.
For the present analysis, a total of n=110 cases and controls from the intention-to-treat data set of the SepNet study HYPRESS study (ClinicalTrials.gov number: NCT00670254) were selected, of which n=97 were treated according to protocol and selected for the analysis. Patients with and without septic shock during their ICU stay were selected at a 1:1 ratio. Control patients were matched according to demographics, organ dysfunction, concomitant medication and other outcomes.
The primary end point for the case-control study was the occurrence of septic shock within 28 days, or discharge from the ICU. The goal was to identify potential interaction between the levels of bio-ADM (</>70 pg/mL) and treatment arm (hydrocortisone vs. placebo).

For `CC(=O)OCC(=O)[C@@]1(O)CC[C@H]2[C@@H]3CCC4=CC(=O)CC[C@]4(C)[C@H]3C(=O)C[C@@]21C` [Cortisone acetate], the “Half-life duration of action” value [1] is given as 8 to 12 h, the “Potency relat. to hydrocortisone, Mineralcorticoid” value [2] is given as 0.8 and the “Potency relat. to hydrocortisone, Anti-inflammatory” value [3] is given as 0.8.
In the case of `C[C@]12C=CC(=O)C=C1CC[C@@H]1[C@@H]2C(=O)C[C@@]2(C)[C@H]1CC[C@]2(O)C(=O)CO` [Prednisone], the “Half-life duration of action” value [1] is given as 12 to 36 h.
In the case of `C[C@]12C=CC(=O)C=C1CC[C@@H]1[C@@H]2[C@@H](O)C[C@@]2(C)[C@H]1CC[C@]2(O)C(=O)CO` [Prednisolone], the “Half-life duration of action” value [1] is listed as 12 to 36 h, the “Potency relat. to hydrocortisone, Mineralcorticoid” value [2] is listed as 0.8 and the “Potency relat. to hydrocortisone, Anti-inflammatory” value [3] is listed as 4.
With `CC[C@H](C)[C@H](NC(=O)[C@H](CCC(N)=O)NC(=O)[C@H](Cc1c[nH]cn1)NC(=O)[C@H](C)NC(=O)[C@H](CC(C)C)NC(=O)[C@H](CCCCN)NC(=O)[C@H](CCC(N)=O)NC(=O)[C@@H](NC(=O)[C@@H](NC(=O)[C@@H]1CSSC[C@H](NC(=O)CNC(=O)[C@H](Cc2ccccc2)NC(=O)[C@H](CO)NC(=O)[C@H](CCCNC(=N)N)NC(=O)[C@H](CC(C)C)NC(=O)CNC(=O)[C@H](CCC(N)=O)NC(=O)[C@H](Cc2ccccc2)NC(=O)[C@H](CC(N)=O)NC(=O)[C@H](CC(N)=O)NC(=O)[C@H](CCSC)NC(=O)[C@H](CO)NC(=O)[C@H](CCC(N)=O)NC(=O)[C@H](CCCNC(=N)N)NC(=O)[C@@H](N)Cc2ccc(O)cc2)C(=O)N[C@@H](CCCNC(=N)N)C(=O)N[C@@H](Cc2ccccc2)C(=O)NCC(=O)N[C@@H]([C@@H](C)O)C(=O)N1)[C@@H](C)O)C(C)C)C(=O)N[C@@H](Cc1ccc(O)cc1)C(=O)N[C@@H](CCC(N)=O)C(=O)N[C@@H](Cc1ccccc1)C(=O)N[C@H](C(=O)N[C@@H](CC(=O)O)C(=O)N[C@@H](CCCCN)C(=O)N[C@@H](CC(=O)O)C(=O)N[C@@H](CCCCN)C(=O)N[C@@H](CC(=O)O)C(=O)N[C@@H](CC(N)=O)C(=O)N[C@H](C(=O)N[C@@H](C)C(=O)N1CCC[C@H]1C(=O)N[C@@H](CCCNC(=N)N)C(=O)N[C@@H](CO)C(=O)N[C@@H](CCCCN)C(=O)N[C@H](C(=O)N[C@@H](CO)C(=O)N1CCC[C@H]1C(=O)N[C@@H](CCC(N)=O)C(=O)NCC(=O)N[C@@H](Cc1ccc(O)cc1)C(N)=O)[C@@H](C)CC)C(C)C)[C@@H](C)O` [hADM] the recovery ([4]; 0 h) was 100%, the “Loss of immune reactivity %/h” value ([4]; 2 h) was 0.4 %/h and the recovery ([4]; 2 h) was 99.2%. The “Loss of immune reactivity %/h” value ([4]; 4 h) was 0.8 %/h, the recovery ([4]; 4 h) was 96.4% and the “Loss of immune reactivity %/h” value ([4]; 8 h) was 1.5 %/h. For the same compound, the recovery ([4]; 8 h) was 88.2%, the “Average loss of immune reactivity” value [4] was “Average: 0.9%/h” and the “Average loss of immune reactivity” value ([4]; listed as ADM) was 0.9 %/h. For the same compound, the metabolised at 2 h, 10 ng/ml ([4]; human citrate plasma, 2 h, read-out: Relative loss of immune reactivity) was 0.8%, the metabolised at 4 h, 10 ng/ml ([4]; human citrate plasma, 4 h, read-out: Relative loss of immune reactivity) was 3.6% and the metabolised at 8 h, 10 ng/ml ([4]; human citrate plasma, 8 h, read-out: Relative loss of immune reactivity) was 11.8%.
In the case of `C[C@H]1C[C@@H]2[C@H]([C@@H](O)C[C@@]3(C)[C@H]2CC[C@]3(O)C(=O)CO)[C@@]2(C)C=CC(=O)C=C12` [Methylprednisolone], the “Half-life duration of action” value [1] is listed as 12 to 36 h.
In the case of `C[C@]12CCC(=O)C=C1CC[C@@H]1[C@@H]2[C@@H](O)C[C@@]2(C)[C@H]1CC[C@]2(O)C(=O)CO` [Hydrocortisone], the “Half-life duration of action” value [1] is listed as 8 to 12 h, the “Potency relat. to hydrocortisone, Mineralcorticoid” value [2] is listed as 1 and the “risk of a septic shock within 14 days” value [5] is listed as “doesn't reduces the risk”. For the same compound, the “Potency relat. to hydrocortisone, Anti-inflammatory” value [3] was 1, the survival effect [6] was “no survival effect” and the “needed additional treatment with Benzodiazepine” value ([7]; patients with bio-AD<70 pg/mL) was 12.0%. For the same compound, the “median length of stay” value ([7]; patients with bio-ADM<70 pg/mL) was 22 days, the “needed a surgical intervention” value ([7]; patients with bio-ADM<70 pg/mL) was 48.0% and the “needed additional treatment with Propofol” value ([7]; patients with bio-ADM<70 pg/mL) was 16.0%. The “needed additional treatment with opioids” value ([7]; patients with bio-ADM<70 pg/mL) was 40.0%, the “survived the 90-day follow up” value ([7]; patients with bio-ADM<70 pg/mL) was 76.0% and the “patients who developed shock” value ([7]; patients with bio-ADM<70 pg/mL) was 40%. The “median length of stay” value ([7]; patients with bio-ADM>70 pg/mL) was 25 days, the “needed a surgical intervention” value ([7]; patients with bio-ADM>70 pg/mL) was 27.3% and the “needed additional treatment with Benzodiazepine” value ([7]; patients with bio-ADM>70 pg/mL) was 13.6%. The “needed additional treatment with Propofol” value ([7]; patients with bio-ADM>70 pg/mL) was 4.5%, the “needed additional treatment with opioids” value ([7]; patients with bio-ADM>70 pg/mL) was 31.8% and the “survived the 90-day follow up” value ([7]; patients with bio-ADM>70 pg/mL) was 72.7%. The “patients who developed shock” value ([7]; patients with bio-ADM>70 pg/mL) was 50%.
In the case of `C[C@]12CCC(=O)C=C1CC[C@H]1[C@@H]3CC[C@](O)(C(=O)CO)[C@@]3(C)C[C@H](O)[C@@]12F` [Fludrocortisone], the “Half-life duration of action” value [1] is given as 24 to 36 h.
